Measurements as given in patent US10172787B2, “Method of regulating a condition of mammalian keratinous tissue” (priority 2015, dated 2019).

Test system: interleukin-18 (IL-18)
Assay: Skin sensitization potential: IL-18 production in HEK
Assay type: cell-based, human
Conditions: 16 hours
Procedure: It is possible for a material to not be cytotoxic, and yet be unsafe due to provoking an allergic reaction upon skin contact. Typically, initial exposure to an allergen sensitizes the immune system, and following exposures cause an allergic response. […] Thus, IL-18 production in HEK was evaluated to determine sensitization potential.
Normal human adult epidermal keratinocytes (HEK) were cultured as described above for the cytoxicity evaluation. […] The cell lysates were collected, and IL-18 was quantified using Human IL-18 ELISA Kit (Catalog #7620, produced by MBL International Co., Woburn, Mass., USA). […] Fold changes of IL-18 levels between test articles and respective vehicle controls were calculated and compared to pPD (positive control). […]

Structure (SMILES): Nc1ccc(N)cc1 [benchmark sensitizer, para-phenylenediamine]
- IL18 Maximum fold (vs vehicle control): 7.8 fold)
